Measured values: US9340574B2, “Inhibitors of protein tyrosine phosphatases” (Indiana University Research and Technology Corporation, priority 2012, dated 2016)

How the values were obtained:
PTP-MEG2 = PTP-MEG2 (Homo sapiens (Human), UniProt P43378); experiment: pNPP hydrolysis enzyme assay, PTP-MEG2; type: biochemical; conditions: for IC50: pNPP substrate, pH 7.0, 25° C., read-out: IC50 for PTP-MEG2
Procedure: (§1) Enzyme kinetic assay. PTP activity was assayed using p-nitrophenyl phosphate (pNPP) as a substrate in 3,3-dimethylglutarate buffer (50 mM 3,3-dimethylglutarate, pH 7.0, 1 mM EDTA, 150 mM NaCl, 2 mM DTT, 0.1 mg/mL BSA) at 25° C. The assays were performed in 96-well plates. Normally, to determine the IC50 values, the reaction was initiated by the addition of enzyme (final concentration at 10 nM) to a reaction mixture (0.2 mL) containing 2 mM (Km for the substrate) pNPP with various concentrations of inhibitors. The reaction rate was measured using a SpectraMax Plus 384 Microplate Spectrophotometer (Molecular Devices). To determine the mode of inhibition, the reactions were initiated by the addition of PTP-MEG2 to the reaction mixtures (0.2 mL) containing various concentrations of pNPP with different concentrations of the inhibitor 7. Data were fitted using SigmaPlot Enzyme Kinetics Module (Systat Software, Inc.).
PTP-MEG2 Overexpression, and Purification. The expression vector containing residues 277-582 of PTP-MEG2 catalytic domain was provided by Stefan Knapp at the University of Oxford. For protein expression, transformed cells were grown at 37° C. in Luria broth (LB) containing […] ampicillin for 4 h to an OD600 nm @0.6, and then induced for overnight at 18° C. with 0.4 mM IPTG. Cells were harvested by centrifugation (6500 rpm for 15 min at 4° C.), and the cell pellets from 1.5 L LB medium were suspended in 30 mL of ice-cold lysis buffer consisting of 5 mM imidazole, 500 mM NaCl, 20 mM Tris-HCl (pH 7.9), 0.05 mg/mL trypsin inhibitor and 0.1 mM PMSF. The suspensions were passed twice through a French Press at 1200 psi, and the cell lysates were centrifuged at 4° C. for 30 min at 16,000 rpm. The supernatants were mixed with 2 mL Ni-NTA Agarose (His*Bind Resin) (Qiagen) at 4° C. for 1 hour, then transferred mixture to an empty column. The column was washed by 200 mL binding buffer (5 mM imidazole, 500 mM NaCl, 20 mM Tris-HCl (pH 7.9)), followed by 20 mL wash buffer (20 mM imidazole, 500 mM NaCl, 20 mM Tris-HCl (pH 7.9)), and then eluted with 20 mL elution buffer (200 mM imidazole, 500 mM NaCl, 20 mM Tris-HCl (pH 7.9), 5 mM DTT). The elution was dialyzed for 6 h at 4° C. against 1 L buffer A (50 mM NaCl, 20 mM MES (pH6.0), 1 mM EDTA), and then loaded onto a Mono S column equilibrated at 4° C. with buffer A. The column was washed with 10 ml buffer A and then eluted with a 40 mL linear gradient of 0 to 1M NaCl in buffer A. The PTP-MEG2 was eluted at 0.35 M NaCl. The column fractions were analyzed by measuring the absorbance at 280 nm and by carrying out SDS-PAGE analysis. The fractions were combined, dialyzed against 1 L buffer A and concentrated at 4° C. to 8 mg/mL using an Amicon concentrator and then stored at −80° C.

PTP1B = PTP1B (Homo sapiens (Human), UniProt P18031); experiment: pNPP hydrolysis enzyme assay, PTP1B; type: biochemical
Chain of PTP1B (P18031 whole entry, species assumed): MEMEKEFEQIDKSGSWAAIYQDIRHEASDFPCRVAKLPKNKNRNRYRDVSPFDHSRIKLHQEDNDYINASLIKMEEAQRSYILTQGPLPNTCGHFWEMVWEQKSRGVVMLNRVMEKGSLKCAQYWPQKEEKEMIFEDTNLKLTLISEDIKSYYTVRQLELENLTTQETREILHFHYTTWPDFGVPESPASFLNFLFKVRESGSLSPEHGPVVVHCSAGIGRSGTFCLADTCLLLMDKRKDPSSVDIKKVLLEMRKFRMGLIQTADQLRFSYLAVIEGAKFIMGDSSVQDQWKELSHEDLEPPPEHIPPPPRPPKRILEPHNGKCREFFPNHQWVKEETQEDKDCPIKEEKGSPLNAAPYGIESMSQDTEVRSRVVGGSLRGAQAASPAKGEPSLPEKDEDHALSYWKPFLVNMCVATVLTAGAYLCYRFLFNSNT
Procedure: as §1

Chain of PTP-MEG2 (P43378 277-582): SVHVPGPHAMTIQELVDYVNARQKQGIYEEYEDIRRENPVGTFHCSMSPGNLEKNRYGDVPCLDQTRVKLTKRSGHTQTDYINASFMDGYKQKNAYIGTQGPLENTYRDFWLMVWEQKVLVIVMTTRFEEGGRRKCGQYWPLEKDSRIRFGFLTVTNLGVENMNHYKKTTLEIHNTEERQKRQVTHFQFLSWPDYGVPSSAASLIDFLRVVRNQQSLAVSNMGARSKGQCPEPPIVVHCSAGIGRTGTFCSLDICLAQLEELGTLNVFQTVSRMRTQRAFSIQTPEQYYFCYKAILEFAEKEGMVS

SMILES	IC50 (PTP-MEG2)	improvement in potency / binding affinity for PTP-MEG2 over the preceding lead (PTP-MEG2; Compound 5 vs Compound 3, Compound 7 vs Compound 5)	IC50 (PTP1B; pNPP substrate)	selectivity for PTP-MEG2 over PTP1B (PTP1B; ratio of IC50 values)
CC(=O)NC(Cc1ccc(C(F)(F)P(=O)(O)O)cc1)C(=O)NC(CCCNC(=O)c1cccc(I)c1)C(N)=O (centres unmarked) [Compound 3]	900 ± 20 nM			
Cc1ccc(C(=O)NC(Cc2ccc(C(F)(F)P(=O)(O)O)cc2)C(=O)NC(CCCNC(=O)c2cccc(I)c2)C(N)=O)cc1Br (centres unmarked) [Compound 5]	270 ± 70 nM	3.3 fold	3400 ± 80 nM	12.6 fold
